Structures are written as SMILES. Where two headings read alike, the source gives them in different places.

For data set [1] the following is noted: mouse, i.p., 24 h, previously reported, cited from earlier work.
For data set [2], the system named is HCV-Luc (HCV JFH-1 strain, genotype 2a). The experiment in a line: microbe, parasite or virus in culture. Conditions: Hepatitis C virus, GETYPE2A, values in nM. It is filed as cell-based.
The subject of data set [3] is hepatitis B virus, HCV replicon, herpes simplex virus-1, human cytomegalovirus, vaccinia virus, dengue virus, influenza A (H1N1) virus, respiratory syncytial …. Type of data set: cell-based.
For data set [4], the target named is H1-histamine receptor (H1HR) (Homo sapiens, UniProt P35367). The experiment in a line: H1HR inhibition assay. To be noted: read-out: H1HR inhibition. It is filed as cell-based.
Chain of H1-histamine receptor (H1HR) (P35367 whole entry): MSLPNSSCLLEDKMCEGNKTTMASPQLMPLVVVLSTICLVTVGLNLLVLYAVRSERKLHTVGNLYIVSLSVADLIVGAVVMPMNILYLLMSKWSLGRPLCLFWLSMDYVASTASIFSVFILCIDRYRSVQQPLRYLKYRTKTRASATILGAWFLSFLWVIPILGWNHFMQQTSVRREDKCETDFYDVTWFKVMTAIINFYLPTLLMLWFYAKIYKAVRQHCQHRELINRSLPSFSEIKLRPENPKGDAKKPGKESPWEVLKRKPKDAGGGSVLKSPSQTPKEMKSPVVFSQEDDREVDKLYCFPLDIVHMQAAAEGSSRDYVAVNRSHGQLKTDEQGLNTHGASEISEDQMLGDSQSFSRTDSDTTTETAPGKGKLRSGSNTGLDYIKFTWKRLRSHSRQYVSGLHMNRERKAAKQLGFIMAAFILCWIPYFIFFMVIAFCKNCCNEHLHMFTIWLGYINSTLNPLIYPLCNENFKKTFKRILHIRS

`CN1CCN([C@@H](c2ccccc2)c2ccc(Cl)cc2)CC1` [(S)-2, reference compound]: the “T1/2 Liver” value in data set [1] (50 mg/kg) is listed as 1.99 h.
In general, EC50 refers to the concentration at which the effect is half-maximal. High values mean weaker potency, low ones greater potency. Take `NCCOCCN1CCN(C(c2ccccc2)c2ccc(Cl)cc2)CC1` (racemic) [Rac-23, 2-(2-(4-((4-Chlorophenyl) (Phenyl)methyl)piperazin-1-yl)ethoxy)ethanamine]: the concentration giving a half-maximal response (EC50) in data set [2] is less than 8 nM.
`CCN1CCN([C@@H](c2ccccc2)c2ccc(Cl)cc2)CC1` [(S)-10, (S)-1-((4-Chlorophenyl) (phenyl)methyl)-4-ethylpiperazine]: the “antiviral activity in the NIAID antiviral screen” value in data set [3] was “Little or no antiviral activity was detected”.
On to `CN1CCN(C(c2ccc(Cl)cc2)c2ccc(Cl)cc2)CC1` [Compound 30, 1-(Bis(4-chlorophenyl)methyl)-4-methylpiperazine], for which the ALT levels in the data set “Alanine transaminase” (mouse serum, 10 mg/kg i.p., most time points except t = 2 and 4 h) is on record as no more than 80 U/L. The hepatotoxicity result in the data set “Alanine transaminase” (mouse, single 10 mg/kg i.p., ALT also elevated with vehicle only) is “no clear hepatotoxicity was detected”.
The term inhibition denotes the percentage by which the read-out fell short of the control. In the case of `Clc1ccc([C@H](c2ccccc2)N2CCNCC2)cc1` [(S)-1], in data set [1] (10 mg/kg), the “T1/2 Liver” value is 4.7 h. Besides, the inhibition at 0.01 µM in data set [4] is roughly 10%.

The record behind these values is article PMC4753534 (Journal of Medicinal Chemistry, 2015).
